Experiments:
CDK2 = biological target: T1, CDK2 (Homo sapiens, UniProt P24941); assay: CDK protein degradation activity (Western blotting), CDK2; type: cell-based; conditions: MDA-MB-231 cells, 16 hours, Western blot
T1 construct: endogenous in cells; host or cells: MDA-MB-231
Method in brief: (§1)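 CDK2 and CDK9 protein levels measured by Western blot with densitometry, using tubulin as loading reference. Cells were MDA-MB-231, exposed for 16 h to 100 nM, 1 μM or 10 μM compound or to DMSO.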

CDK9 = biological target: T2, CDK9 (Homo sapiens, UniProt P50750); assay: CDK protein degradation activity (Western blotting), CDK9; type: cell-based; conditions: MDA-MB-231 cells, 16 hours, Western blot
T2 construct: endogenous in cells; host or cells: MDA-MB-231
Method in brief: as §1

T2 sequence (P50750 whole entry): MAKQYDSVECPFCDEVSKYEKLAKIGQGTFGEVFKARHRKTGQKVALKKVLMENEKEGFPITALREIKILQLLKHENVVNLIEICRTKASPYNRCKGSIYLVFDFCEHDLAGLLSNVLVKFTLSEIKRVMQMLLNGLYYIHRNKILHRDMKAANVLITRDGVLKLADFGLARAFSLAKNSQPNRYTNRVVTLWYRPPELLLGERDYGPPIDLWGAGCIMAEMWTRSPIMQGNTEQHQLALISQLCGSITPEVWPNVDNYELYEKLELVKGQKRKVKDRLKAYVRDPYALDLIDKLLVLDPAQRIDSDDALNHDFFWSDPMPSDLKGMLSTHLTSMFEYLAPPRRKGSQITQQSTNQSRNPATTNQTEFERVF

| Enzyme degradation CDK2 (% remaining) @ 0.1 μM (CDK2) | Enzyme degradation CDK2 (% remaining) @ 1 μM (CDK2) | Enzyme degradation CDK2 (% remaining) @ 10 μM (CDK2) | Enzyme degradation CDK9 (% remaining) @ 0.1 μM (CDK9) | Enzyme degradation CDK9 (% remaining) @ 1 μM (CDK9) | Enzyme degradation CDK9 (% remaining) @ 10 μM (CDK9) | Molecule |
| --- | --- | --- | --- | --- | --- | --- |
| 50% | 40% | 40% | 0/0/0% | 0/0/0% | 0/0/0% | O=C1CC[C@H](N2C(=O)c3cc(F)c(N4CCC(C(=O)N5CCC(CN6CCN(c7ccc(Nc8ncnc9c8ncn9C8CC(NC(=O)c9cccc(F)n9)C8)cc7)CC6)CC5)CC4)cc3C2=O)C(=O)N1 (some centres unmarked) [Compound 468, N-((1s,3s)-3-(6-((4-(4-((1-(1-(2-(2,6-dioxopiperidin-3-yl)-6-fluoro-1,3-dioxoisoindolin-5-yl)piperidin-4-carbonyl)piperidin-4-yl)methyl)piperazin-1-yl)phenyl)amino)-9H-purin-9-yl)cyclobutyl)-6-fluoropicolinamide] |
| 40/40/40% | 40/40/40% | 40/40/40% | 0/0/0% | 0/0/0% | 0/0/0% | O=C1CC[C@H](N2C(=O)c3ccc(N4CC(C(=O)N5CCC(CN6CCN(c7ccc(Nc8ncnc9c8ncn9[C@H]8C[C@@H](NC(=O)c9cccc(C(F)(F)F)n9)C8)cc7)CC6)CC5)C4)cc3C2=O)C(=O)N1 [Compound 469, N-((1s,3s)-3-(6-((4-(4-((1-(1-(2-(2,6-dioxopiperidin-3-yl)-1,3-dioxoisoindolin-5-yl)azetidin-3-carbonyl)piperidin-4-yl)methyl)piperazin-1-yl)phenyl)amino)-9H-purin-9-yl)cyclobutyl)-6-(trifluoromethyl)picolinamide] |
| 30/30/30% | 30/30/30% | 30/30/30% | 0/0/0% | 0/0/0% | 0/0/0% | O=C1CCC(N2C(=O)c3ccc(N4CCC(C(=O)N5CCC(CN6CCN(c7ccc(Nc8ncnc9c8ncn9[C@H]8C[C@@H](NC(=O)c9cccc(C(F)(F)F)n9)C8)cc7)CC6)CC5)CC4)cc3C2=O)C(=O)N1 (some centres unmarked) [Compound 470, N-((1s,3s)-3-(6-((4-(4-((1-(1-(2-(2,6-dioxopiperidin-3-yl)-1,3-dioxoisoindolin-5-yl)piperidin-4-carbonyl)piperidin-4-yl)methyl)piperazin-1-yl)phenyl)amino)-9H-purin-9-yl)cyclobutyl)-6-(trifluoromethyl)picolinamide] |
| 50% | 40% | 40% | 0/0/0% | 0/0/0% | 0/0/0% | O=C1CC[C@H](N2C(=O)c3cc(F)c(N4CCC(C(=O)N5CCC(CN6CCN(c7ccc(Nc8ncnc9c8ncn9[C@H]8C[C@@H](NC(=O)c9cccc(C(F)(F)F)n9)C8)cc7)CC6)CC5)CC4)cc3C2=O)C(=O)N1 [Compound 471, N-((1s,3s)-3-(6-((4-(4-((1-(1-(2-(2,6-dioxopiperidin-3-yl)-6-fluoro-1,3-dioxoisoindolin-5-yl)piperidin-4-carbonyl)piperidin-4-yl)methyl)piperazin-1-yl)phenyl)amino)-9H-purin-9-yl)cyclobutyl)-6-(trifluoromethyl)picolinamide] |
| 40% | 40% | 50% | 0/0/0% | 0/0/0% | 0/0/0% | N#Cc1cccc(C(=O)NC2CC(n3cnc4c(Nc5ccc(N6CCN(CC7CCN(C(=O)C8CCN(c9cc%10c(cc9F)C(=O)N([C@H]9CCC(=O)NC9=O)C%10=O)CC8)CC7)CC6)cc5)ncnc43)C2)n1 (some centres unmarked) [Compound 472, 6-cyano-N-((1s,3s)-3-(6-((4-(4-((1-(1-(2-(2,6-dioxopiperidin-3-yl)-6-fluoro-1,3-dioxoisoindolin-5-yl)piperidin-4-carbonyl)piperidin-4-yl)methyl)piperazin-1-yl)phenyl)amino)-9H-purin-9-yl)cyclobutyl)picolinamide] |
| 20% | 30% | 30% | 10% | 0% | 0% | O=C1CCC(N2C(=O)c3ccc(N4CCC(C(=O)N5CCN(CC6CCN(c7ccc(Nc8ncnc9c8ncn9[C@H]8C[C@@H](NC(=O)c9c(Cl)cccc9Cl)C8)cc7)CC6)CC5)CC4)cc3C2=O)C(=O)N1 (some centres unmarked) [Compound 474, 2,6-dichloro-N-((1s,3s)-3-(6-((4-(4-((4-(1-(2-(2,6-dioxopiperidin-3-yl)-1,3-dioxoisoindolin-5-yl)piperidin-4-carbonyl)piperazin-1-yl)methyl)piperidin-1-yl)phenyl)amino)-9H-purin-9-yl)cyclobutyl)benzamide] |
| 20/20/20% | 20/20/20% | 20/20/20% | 0/0/0% | 0/0/0% | 0/0/0% | O=C1CC[C@H](N2C(=O)c3cc(F)c(N4CCC(C(=O)N5CCN(CC6CCN(c7ccc(Nc8ncnc9c8ncn9[C@H]8C[C@@H](NC(=O)c9c(Cl)cccc9Cl)C8)cc7)CC6)CC5)CC4)cc3C2=O)C(=O)N1 [Compound 475, 2,6-dichloro-N-((1s,3s)-3-(6-((4-(4-((4-(1-(2-(2,6-dioxopiperidin-3-yl)-6-fluoro-1,3-dioxoisoindolin-5-yl)piperidin-4-carbonyl)piperazin-1-yl)methyl)piperidin-1-yl)phenyl)amino)-9H-purin-9-yl)cyclobutyl)benzamide] |
| 70% | – | 60% | 50% | 10% | 10% | Cc1cccc(C(=O)N[C@H]2C[C@@H](n3cnc4c(Nc5ccc(N6CCN(CC7CCN(C(=O)C8CCN(c9cc%10c(cc9F)C(=O)N([C@H]9CCC(=O)NC9=O)C%10=O)CC8)CC7)CC6)cc5)ncnc43)C2)n1 [Compound 476, N-((1s,3s)-3-(6-((4-(4-((1-(1-(2-(2,6-dioxopiperidin-3-yl)-6-fluoro-1,3-dioxoisoindolin-5-yl)piperidin-4-carbonyl)piperidin-4-yl)methyl)piperazin-1-yl)phenyl)amino)-9H-purin-9-yl)cyclobutyl)-6-methylpicolinamide] |
| 20/20/20% | 20/20/20% | 20/20/20% | 30/30/30% | 30/30/30% | 30/30/30% | Cc1cccc(C(=O)NC2CC(n3cnc4c(Nc5ccc(N6CCN(CC7CCN(C(=O)C8CCN(c9cc%10c(cc9F)C(=O)N([C@H]9CCC(=O)NC9=O)C%10=O)CC8)CC7)CC6)cc5C)ncnc43)C2)n1 (some centres unmarked) [Compound 477, N-((1s,3s)-3-(6-((4-(4-((1-(1-(2-(2,6-dioxopiperidin-3-yl)-6-fluoro-1,3-dioxoisoindolin-5-yl)piperidin-4-carbonyl)piperidin-4-yl)methyl)piperazin-1-yl)-2-methylphenyl)amino)-9H-purin-9-yl)cyclobutyl)-6-methylpicolinamide] |
| 10% | 20% | 20% | 20/20/20% | 20/20/20% | 20/20/20% | Cc1cccc(C(=O)NC2CC(n3cnc4c(Nc5ccc(N6CCN(CC7CCN(c8ccc9nnn([C@H]%10CCC(=O)NC%10=O)c(=O)c9c8)CC7)CC6)cc5C)ncnc43)C2)n1 (some centres unmarked) [Compound 478, N-((1s,3s)-3-(6-((4-(4-((1-(3-(2,6-dioxopiperidin-3-yl)-4-oxo-3,4-dihydrobenzo[d][1,2,3]triazin-6-yl)piperidin-4-yl)methyl)piperazin-1-yl)-2-methylphenyl)amino)-9H-purin-9-yl)cyclobutyl)-6-methylpicolinamide] |
| 50% | 60% | 60% | 30% | 20% | 20% | O=C1CC[C@H](N2C(=O)c3ccc(N4CCN(CC=CCN5CCC6(CC5)CC(N5CCN(c7ccc(Nc8ncnc9c8ncn9C8CC(NC(=O)Cc9ccccc9)C8)cc7)CC5)C6)CC4)cc3C2=O)C(=O)N1 (some centres unmarked) [Compound 479, N-((1s,3s)-3-(6-((4-(4-(7-(4-(4-(2-(2,6-dioxopiperidin-3-yl)-1,3-dioxoisoindolin-5-yl)piperazin-1-yl)but-2-en-1-yl)-7-azaspiro[3.5]nonan-2-yl)piperazin-1-yl)phenyl)amino)-9H-purin-9-yl)cyclobutyl)-2-phenylacetamide] |
| 50/50/50% | 50/50/50% | 50/50/50% | 0/0/0% | 0/0/0% | 0/0/0% | N-((1s,3s)-3-(6-((4-(4-(2-(1-(1-(2-(2,6-dioxopiperidin-3-yl)-1,3-dioxoisoindolin-5-yl)piperidin-4-carbonyl)piperidin-4-yl)ethyl)piperazin-1-yl)phenyl)amino)-9H-purin-9-yl)cyclobutyl)-2-phenylacetamide [Compound 404] |

— patent publication US20260125382A1, “COMPOUNDS FOR INHIBITING OR DEGRADING CDK2 AND/OR CDK9 AND MEDICINAL USE THEREOF” (KOREA RESEARCH INSTITUTE OF CHEMICAL TECHNOLOGY, priority 2022, published 2026)
